# Laboratory results taken from article PMC13427755 (Nature Communications, 2026).
# Where a SMILES comes first, the peptide text is derived from it.
# Columns and labels:
# [1] = system: surfactant protein D (SP-D); assay: SP-D in plasma, MSD-ECL assay; format: in vivo, human; details: for SP-D in plasma, Δ from baseline, median (IQR): Day 14 minus screening, N = 8; for SP-D in plasma, median difference vs placebo (Hodges-Lehmann): N = 8 vs pooled placebo N = 5
# Description: Blood samples for biomarker assessments in PBMCs and platelet-rich plasma were collected prior to the initial dose and on day 14 following the last dose. Following optimization for detection of analytes in IPF matrices, meso-scale discovery electrochemiluminescence (MSD-ECL) assays were performed at BioAgylitix for SP-D (#K1519XR-2, MSD) in plasma and AKT/pAKT (#K15100D-1, MSD) in PBMCs according to manufacturer’s instructions.
# (§1) Descriptive statistics are reported as medians with interquartile ranges (IQR). The Hodges-Lehmann estimator was used for the median difference between groups (treatment minus placebo), with approximate 90% confidence intervals (asymmetric, exact level varied slightly with small n). Cliff’s delta was calculated as effect size using the formula δ = (2U / (n1 × n2)) − 1, with thresholds: |δ | <0.3 small effect, 0.3–0.5 medium effect, >0.5 large effect. […] No adjustment for multiplicity was performed, as these were pre-specified, hypothesis-driven exploratory analyses. All biomarker statistical analyses were conducted using GraphPad Prism Version v10.0.
# [2] = system: collagen type 1 alpha chain 1 (COL1A1); assay: COL1A1 ELISA in deep bronchial brushings (DBB); format: in vivo, human; details: for COL1A1 in DBB, Δ from baseline, median (IQR): Day 14 minus screening
# Description: (§2) Bronchoscopists were instructed to obtain a total of 6 brushings from 3 of the basilar bronchial segments of the right lower lobe: the anterior basilar segment, the lateral basilar segment, and the posterior basilar segment. With the bronchoscope proximal to or within the orifice of the appropriate basilar segment, the brush sheath was to be passed out 5 cm beyond the subsegment orifice, and then the brush was fully extended an additional 1 cm for a total of 6 cm beyond the orifice of the subsegmental bronchus. At the desired depth, the sheath was to be gently pulled back and forward for 15 strokes to brush the small airways. The brushing process was repeated using any combination of the 3 basilar segments described above, at the discretion of the bronchoscopist, for a total of 6 six separate brush samples.
# (§3) Protein isolation and preparation of DBB samples for ELISAs were performed as previously described[47] according to manufacturer’s instructions for COL1A1 (#ab210966, abcam), CXCL7 (#LS-F4967-1, LS Bio), GAL7 (#DY1339, R&D Systems), IL-11 (#DY218, R&D Systems), and TSLP (#DY1398, R&D Systems).
# as §1
# [3] = system: chemokine (C-X-C motif) ligand 7 (CXCL7); assay: CXCL7 ELISA in deep bronchial brushings (DBB); format: in vivo, human; details: for CXCL7 in DBB, Δ from baseline, median (IQR): Day 14 minus screening, N = 8; for CXCL7 in DBB, median difference vs placebo (Hodges-Lehmann): N = 8 vs pooled placebo N = 6
# Description: as §2, §3, §1
# galectin-7 (GAL-7) = assay: GAL7 ELISA in deep bronchial brushings (DBB); format: in vivo, human; details: for GAL7 in DBB, Δ from baseline, median (IQR): Day 14 minus screening
# Description: as §2, §3, §1
# Sprague Dawley rats = details: 28-day GLP inhalation study, delivered doses 18.4, 58.5 and 109.3 mg/kg/day, ref Investigator Brochure (IB); cited from earlier work
# Description: Pivotal 28-day Good Laboratory Practice (GLP) toxicity studies were performed in rats and dogs. These studies were designed such that the high dose levels would achieve at least a 50-fold margin over the proposed high clinical dose as recommended in International Council for Harmonisation (ICH)-M3(R2) guidelines.
# Healthy Adult Subjects = details: cited from earlier work
# Description: Pivotal 28-day Good Laboratory Practice (GLP) toxicity studies were performed in rats and dogs. These studies were designed such that the high dose levels would achieve at least a 50-fold margin over the proposed high clinical dose as recommended in International Council for Harmonisation (ICH)-M3(R2) guidelines. […] These events were considered to be dose limiting and related to LTI-03. There was no evidence that the TEAEs in the 3 subjects described previously were secondary to an allergic response. In the 20 mg QD MAD cohorts there were mild decreases in FEV1 in two subjects that were not associated with TEAEs. These were not considered to be dose limiting. There were no serious adverse events (SAEs). All TEAEs were resolved 7 days after the treatment period. Further details can be ...
# [4] = 5 mg/day, N = 8 vs pooled placebo N = 6, one-tailed Mann-Whitney p = 0.0709
structure (smiles),measurement,setting,value
CC(C)[C@H](NC(=O)[C@@H](NC(=O)[C@H](Cc1ccccc1)NC(=O)[C@@H](NC(=O)[C@@H](NC(=O)[C@@H](N)Cc1ccccc1)[C@@H](C)O)[C@@H](C)O)[C@@H](C)O)C(=O)N[C@H](C(=O)O)[C@@H](C)O [LTI-03] (H-FTTFTVT-OH; N-terminus and C-terminus assumed),"SP-D in plasma, Δ from baseline, median (IQR)",[1]; 5 mg/day,3290 pg/mL
same,"SP-D in plasma, median difference vs placebo (Hodges-Lehmann)","[1]; 5 mg/day, one-tailed Mann-Whitney p = 0.3108",3428 pg/mL
same,"SP-D in plasma, Δ from baseline, median (IQR)",[1]; 10 mg/day,-3264 pg/mL
same,"SP-D in plasma, median difference vs placebo (Hodges-Lehmann)","[1]; 10 mg/day, one-tailed Mann-Whitney p = 0.1111",-8368 pg/mL
same,decrease of plasma SP-D compared to placebo,"[1]; 10 mg/day, baseline to Day 14, p = 0.1111, not statistically significant",5%
same,"COL1A1 in DBB, Δ from baseline, median (IQR)","[2]; 5 mg/day, N = 8",0.16 pg/mg protein
same,"COL1A1 in DBB, median difference vs placebo (Hodges-Lehmann)",[2]; [4],−3.486 pg/mg protein
same,"COL1A1 in DBB, Δ from baseline, median (IQR)","[2]; 10 mg/day, N = 9",−11.9 pg/mg protein
same,"COL1A1 in DBB, median difference vs placebo (Hodges-Lehmann)","[2]; 10 mg/day, N = 9 vs pooled placebo N = 6, one-tailed Mann-Whitney p = 0.0248",−20.95 pg/mg protein
same,"CXCL7 in DBB, Δ from baseline, median (IQR)",[3]; 5 mg/day,−100.2 ng/mg protein
same,"CXCL7 in DBB, median difference vs placebo (Hodges-Lehmann)","[3]; 5 mg/day, one-tailed Mann-Whitney p = 0.5",8.265 ng/mg protein
same,"CXCL7 in DBB, Δ from baseline, median (IQR)",[3]; 10 mg/day,−1276.23 ng/mg protein
same,"CXCL7 in DBB, median difference vs placebo (Hodges-Lehmann)","[3]; 10 mg/day, one-tailed Mann-Whitney p = 0.0248",−1262 ng/mg protein
same,"GAL7 in DBB, Δ from baseline, median (IQR)","galectin-7 (GAL-7); 5 mg/day, N = 8",250.8575 pg/mg protein
same,"GAL7 in DBB, median difference vs placebo (Hodges-Lehmann)",galectin-7 (GAL-7); [4],−4730 pg/mg protein
same,"GAL7 in DBB, Δ from baseline, median (IQR)","galectin-7 (GAL-7); 10 mg/day, N = 9",−726.395 pg/mg protein
same,"GAL7 in DBB, median difference vs placebo (Hodges-Lehmann)","galectin-7 (GAL-7); 10 mg/day, N = 9 vs pooled placebo N = 6, one-tailed Mann-Whitney p = 0.0332",−6048 pg/mg protein
same,"no observed adverse effect level (NOAEL), achieved delivered dose",Sprague Dawley rats,109.3 mg/kg/day
same,"tolerability, 3 lower dose MAD cohorts","Healthy Adult Subjects; healthy adults, 2.5 mg QD, 5 mg QD, 5 mg BID inhaled for up to 14 days, ref study LTI-03-1001",well tolerated
same,"TEAEs secondary to pulmonary airflow limitation, 40 mg QD MAD cohort",Healthy Adult Subjects; in vivo,dose limiting
